Columns and labels:
Format in all cases: biochemical
PDE1 = test: recombinant PDE activity assay with [3H]cAMP, calmodulin and Ca2+
PDE4D (PDE4) = PDE4D (PDE4) (Homo sapiens, UniProt Q08499); test: recombinant PDE activity assay with [3H]cAMP
PDE3 = test: recombinant PDE activity assay with [3H]cAMP

PDE4D (PDE4), sequence (Q08499 whole entry): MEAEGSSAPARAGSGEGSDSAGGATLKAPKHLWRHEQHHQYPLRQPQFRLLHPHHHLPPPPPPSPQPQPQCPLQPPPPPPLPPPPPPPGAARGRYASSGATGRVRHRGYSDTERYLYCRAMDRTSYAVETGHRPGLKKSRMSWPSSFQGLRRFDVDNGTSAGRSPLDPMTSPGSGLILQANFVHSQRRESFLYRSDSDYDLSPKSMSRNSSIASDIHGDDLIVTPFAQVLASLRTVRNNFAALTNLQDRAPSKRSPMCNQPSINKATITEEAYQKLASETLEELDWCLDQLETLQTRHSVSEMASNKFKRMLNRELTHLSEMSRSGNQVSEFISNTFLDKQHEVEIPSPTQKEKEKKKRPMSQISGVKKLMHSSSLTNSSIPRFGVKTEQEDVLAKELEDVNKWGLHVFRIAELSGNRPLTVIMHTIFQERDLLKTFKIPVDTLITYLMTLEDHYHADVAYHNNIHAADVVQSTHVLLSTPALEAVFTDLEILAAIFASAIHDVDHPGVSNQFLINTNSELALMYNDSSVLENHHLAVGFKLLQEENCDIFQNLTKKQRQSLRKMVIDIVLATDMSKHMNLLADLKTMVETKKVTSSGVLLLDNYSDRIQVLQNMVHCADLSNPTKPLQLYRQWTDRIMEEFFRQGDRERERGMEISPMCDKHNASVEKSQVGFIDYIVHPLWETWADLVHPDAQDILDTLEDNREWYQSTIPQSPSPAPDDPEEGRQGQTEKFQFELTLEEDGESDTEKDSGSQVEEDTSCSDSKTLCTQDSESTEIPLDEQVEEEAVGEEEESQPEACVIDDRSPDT

## Oc1ccc(/C=C/c2cc(O)cc(O)c2)cc1 [resveratrol]
PDE1
  IC50: ~6 µM
PDE4D (PDE4)
  IC50: ~14 µM
PDE3
  IC50: ~10 µM
